Measured values from patent US20110207694A1, “MAMMALIAN HYPOTHALAMIC NUTRIENT MODULATION OF GLUCOSE METABOLISM” (priority 2005, published 2011).

Experiments:
[1] = test system: Stearoyl-CoA Desaturase 1 (SCD1); assay: Liver SCD1 activity, SCD1 mRNA and LCFA-CoA measurements; type: in vivo, rat
Procedure: Treatment with SCD1 ASO. Five and two days before the lipoprotein secretion studies, rats received a single intra-peritoneal injection of either SCD1 or scrambled (SCR) ASO (100 mg/kg of body weight). […] In a separate set of studies, rats received intra-portal injection of either SCD1 or SCR ASO (40 mg/kg of body weight) (Gutierrez-Juarez et al., 2006) three days before the lipoprotein secretion studies.
Liver LCFA-CoA measurements. The liver was sampled and the LCFA-CoAs were extracted from the liver and measured by high-performance liquid chromatography (HPLC) as previously described (Lam et al., 2005c).
Stearoyl-CoA Desaturase 1 (SCD1) activity. CD1 activity assays were performed essentially as described (Cohen et al., 2002) using 1-[^14C]-stearoyl-CoA as a substrate. At the end of the reaction incubation long-chain acyl CoAs (LC Acyl-CoAs) were extracted and fractionated by reverse-phase HPLC as previously reported (Lam et al., 2005c). Chromatographically resolved stearoyl CoA (C18:0) and oleyl-CoA (C18:1) peaks were collected and counted in a β-scintillation counter. Protein was assayed by the bicinchoninic acid (BCA) method using a commercially available kit (Pierce Biotechnology, Rockford, Ill.) according to the manufacturer's instructions.
Gene expression. Stearoyl-CoA Desaturasel (SCD1) mRNA was measured by quantitative real-time PCR. Briefly, total RNA was extracted from either liver or fat tissue using the Trizol reagent (Invitrogen, Carlsbad, Calif.) according to the manufacturer instructions. cDNA was then synthesized from 2 μg of total RNA using the Superscript® III First-Strand kit TM? (Invitrogen, Carlsbad, Calif.). Samples of RNA in which the reverse transcriptase was omitted (no RT controls) were also included. The cDNA and no RT controls were diluted 1:20 with PCR grade water and 2 μl from each sample was used for PCR in a total volume of 20 μl. The FastStart DNA Master SYBR Green I kit (Roche Applied Science, Indianapolis, Ind.) and a LightCycler® 2 instrument (Roche Applied Science, Indianapolis, Ind.) were used in all experiments. Either 18S mRNA expression was routinely measured for normalization purposes. The primer sequences used were as follows: 5′-[…]-3′ and 5′-[…]-3′ for Scd1; and 5′-[…]-3′ and 5′-[…]-3′ for ribosomal 18S. The mRNA copy number was calculated from standard curves obtained using cloned target templates (plasmid DNA) of known copy number for each gene of interest.

[2] = test system: male Sprague-Dawley rats; details: ICV 2 mM glucose, 5 μl/h (Lam et al., 2005b); cited from earlier work
[3] = test system: high fat-fed rats; assay: Central glucose or lactate in regular chow vs 3-day high fat diet-fed animals: glucose production; type: in vivo, rat; details: central administration
Text: The latter is an excellent model for diet-induced insulin resistance.

[4] = test system: conscious rats; assay: ICV glucose or lactate infusion with pancreatic basal insulin clamp: plasma glucose and liver glucose production; type: in vivo, rat
Text: We hypothesize that the hypothalamic sensing of glucose-derived pyruvate is a novel regulator of endogenous glucose production (GP). […] We propose that an increase in neuronal pyruvate levels is a hypothalamic signal of nutrient availability.
Long chain fatty acids in the brain decrease glucose production (GP) by the liver via activation of hypothalamus ATP-sensitive (KATP) channels. Here we tested whether (A) direct administration of glucose in the third cerebral ventricle can alter glucose production by the liver, and (B) whether this effect requires its metabolism in the TCA cycle.

[5] = test system: phospho-ACC, ACC, FAS, MTP and ApoB; assay: Western blot of liver proteins after ICV glucose; type: in vivo, rat
Procedure: Western blot analyses. Liver tissue (50-100 mg) was homogenized in a detergent-based lysis buffer (M-PER, Pierce) supplemented with protease and phosphatase inhibitors. The extracts were incubated on ice for 20 min and then centrifuged at 15,000×g to remove tissue debris; the supernatants were saved and frozen at −80 C until analysis. Fifty μg of protein were heat-denatured in SDS-PAGE sample buffer and resolved on denaturing (SDS) 10% polyacrylamide gels (SDS-PAGE). Fractionated proteins were electrophoretically transferred to nitrocellulose membranes by standard procedures. Membranes were immunoblotted with the appropriate primary antibodies and immune complexes were detected by enhanced chemiluminescence (ECL) (Western Lightning, Perkin Elmer Life Sciences) using horseradish peroxidase conjugated secondary antibodies. Bands were imaged on X-ray film and digitized for quantification using ImageQuant software (Molecular Dynamics). β-tubulin was used for loading normalization. Antibodies. Rabbit antibodies to acetyl Co-A carboxylase and phospho-acetyl Co-A carboxylase (Ser79) were from Cell Signaling Technology (Beverly, Mass.); fatty acid synthetase (FAS) and microsomal triglyceride transfer protein (MTP) antibodies were from BD Biosciences Pharmingen (San Jose, Calif.); cholesterol hydroxylase 7α (CYP7A1) and ApoB-100 antibodies were from Santa Cruz Biotechnology (Santa Cruz, Calif.); mouse monoclonal β-tubulin antibodies were obtained from Covance Research Products (Berkeley, Calif.).

[6] = test system: rats; assay: Food intake after central (ICV) glucose or lactate; type: in vivo, rat; details: central administration
[7] = central administration of glucose

## O=C[C@H](O)[C@@H](O)[C@H](O)[C@H](O)CO [glucose, D-glucose]
[1]; ICV glucose
  decrease in hepatic expression and activity of SCD1: ~70%
  hepatic desaturation index (oleyl-CoA over stearoyl-CoA): reduction in the hepatic desaturation index
  hepatic oleyl-CoA levels: decreased the levels of oleyl-CoA
  hepatic stearoyl-CoA levels: increasing those of stearoyl-CoA
[1]; after 1 h (60 min) of ICV glucose infusion
  hepatic oleyl-CoA levels, desaturation index and SCD1 activity: Significant decreases in hepatic oleyl-CoA levels, desaturation index, and SCD1 activity
[2]
  rise in hypothalamic glucose levels: ~70%
[3]; 3-day high fat diet-fed animals
  glucose production: severely impaired
[3]; regular chow animals
  glucose production: lowered glucose production
[4]; central (ICV) administration
  circulating glucose levels: lowered circulating glucose levels
[4]; central administration
  gluconeogenesis and glycogenolysis: inhibited gluconeogenesis and glycogenolysis
  liver glucose production, G6Pase flux and mRNA: reduced liver glucose production, G6Pase flux and mRNA
[4]; four hour ICV infusion 5 μl/h (glucose 2 mM, lactate 5 mM), control 150±4
  plasma glucose concentrations: 133 ± 5 mg/dL
[4]; pancreatic basal insulin clamps, central administration
  exogenous glucose infusion rate required to maintain euglycemia: increased exogenous glucose infusion rate
[4]; pancreatic clamps, plasma glucose and insulin at basal, ICV infusion, control 10.4±0.1 (glucose), 11.7±0.6 (lactate)
  GP (glucose production): 7.4 ± 0.3 mg/kg/min
[5]; ICV glucose
  hepatic content of lipogenic enzymes acetyl-CoA carboxylase and fatty acid synthase: failed to alter the hepatic content of these lipogenic enzymes
[5]; [7]
  expression of MTP in the liver: not affected
  hepatic ApoB48 levels: not decreased
[6]
  food intake overnight: inhibits food intake overnight
